Measurements from paper PMC8190279, “Spatiotemporal imaging and pharmacokinetics of fluorescent compounds in zebrafish eleuthero-embryos after different routes of administration” (Scientific Reports, 2021).

Key:
[1] = test system: 3 dpf zebrafish eleuthero-embryos; test: Spatiotemporal fluorescence imaging after immersion, microinjection (PC, IP, IY) or combination; format: in vivo, Danio rerio
Protocol: We then determined the spatiotemporal distribution of the fluorescent compounds. The eleuthero-embryos were exposed to the dyes by immersion or microinjection in the pericardial cavity (PC), intraperitoneally (IP) and in the yolk sac (IY) for 48 h starting from 3 dpf on, i.e. after hatching, thus avoiding the presence of the chorion that has been reported as a potential barrier for the absorption of compounds[21],[27].
At specific time periods after treatment, the eleuthero-embryos were immobilized by hypothermia and fluorescent microscope pictures were taken.
3 dpf zebrafish eleuthero-embryos wildtype AB (n = 10 per compound) randomly selected were immersed using 6-well-plates (5 mL per well) of Danieau’s medium with a final DMSO concentration of 0.1% (v/v), containing the compounds at a concentration of 10 µM. Vehicle-treated control eleuthero-embryos were exposed to Danieau’s medium supplemented with 0.1% v/v DMSO.
3 dpf zebrafish eleuthero-embryos wildtype AB (n = 10 per compound) randomly selected were immobilized by cooling to 4 °C and positioned on 1% (w/v) agarose plates at room temperature. All compounds were microinjected using glass needles fitted to a micromanipulator (MM-33) connected to a gas pressure microinjector (Eppendorf Femtojet set - AG 22331 Hamburg). Glass capillaries (W/FIL 1.0MM 4 in TW 100F-4) were pulled (Sutter Instrument CO. Model P-87 Cat N B100-58-15 Filament: FB330B – FB320B) by using program 5 (Heat 829, Pull 158, Vel 100, Time 150). Needles were filled with compounds dissolved in vehicle (DMSO/saline (1:1)). Microinjections were performed into the pericardial cavity (PC)[47], into the yolk sac (IY)[35], or into the peritoneal cavity (IP) at a volume of 1 nL and a dose of 2 mg/kg. For the intraperitoneal microinjection, the eleuthero-embryos were positioned in lateral right recumbence under a dissecting microscope. By using a micromanipulator, the needle was inserted posteriorly and ventrolateral to the swim bladder in the peritoneal cavity. Afterwards the eleuthero-embryos were transferred to 6-well plates. Control eleuthero-embryos were exposed to vehicle only.
3 dpf zebrafish eleuthero-embryos wildtype AB (n = 10 per compound) randomly selected were immobilized and positioned on 1% (w/v) agarose plates. All compounds were microinjected using glass needles, as previously described into the PC cavity. Afterwards, the larvae were selected and transferred to a 6-well-plate, into its corresponding compound at 10 µM.
The thus-treated eleuthero-embryos were kept in the incubator at 28.5 °C (in darkness) and taken out shortly at defined time points (15’, 1 h, 3 h, 6 h, 24 h and 48 h) for image analysis.
Eleuthero-embryos were immobilized by hypothermia, rinsed three times with Danieau’s medium, and positioned latero-lateral (right lateral recumbency) in a drop of agarose (0.1%). To acquire images, a Leica MZ10F fluorescent stereomicroscope with a 4.0 × planapochromatic objective (10447243) was used, equipped with a Digital Color Camera Leica DFC310 FX (Software LAS 4.13). Filter sets were GFP 10446222 in case of compound FAMA, dSRED 10447079 in case of S-CY3A, CY3A and TAMRA, and CY5 10446366 in case of S-CY5.5A and S-CY5A. After manual delineation of the whole body (WB) contours of the zebrafish eleuthero-embryos using MetaMorph (Microscopy Automation & Image Analysis Software V.7.8.00), the fluorescence in the selected area was quantified as integrated fluorescence intensity (RFU) that adds up all fluorescence intensity values of the individual pixels. In case of the combination treatment the same correction factor for exposure time from the camera setting was applied in the case of FAMA and TAMRA, to avoid saturation of the images (Supplementary information. Figure S1)[48]. The selected images shown in the Figs. 1, 2, 3, 4, 5, 6 and 7 were arranged using MS PowerPoint (Microsoft Corporation, Seattle, USA) and the open-source GIMP (version 2.10.24 www.gimp.org 2021) software. […]

[2] = Experimental lipophilicity (LogD), shake-flask method with UHPLC; conditions: n-octanol / Danieau's solution, 10 µM compound
Protocol: Briefly, 10 µM of compound was shaken in a mixture of two mobile phases, n-octanol and Danieau’s solution (eleuthero-embryo medium) and analysed with UHPLC.
The lipophilicity of the fluorescent compounds was determined following the EPA guideline OPPTS 830.7550 Partition coefficient (shake flask method)[46] using Danieau’s solution and n-octanol as the two immiscible phases. Analyses were performed using an Agilent Infinity 1290 UHPLC system (Agilent Technologies, Waldbronn, Germany) consisting of an autosampler, quaternary pump and DAD-detector, operated with Open Lab software (version C.01.10, Agilent Technologies). […] All compounds were detected and quantified at 390 nm. For the quantification of the compounds, calibration samples were made in 50:50 ACN:MilliQ water for the compounds analysed in RPLC and 95:5 ACN:MilliQ water for compounds analysed in HILIC. […] The variation (calculated as the relative standard deviation, %RSD) for 3 injections was always below 10% (for all considered concentrations) and R^2 values of the calibration curves were all above 0.998. All calculations concerning the evaluation of the recorded data were made in MS Excel (Microsoft Corporation, Seattle, USA). […]

[3] = test system: 3 dpf zebrafish eleuthero-embryos; test: Whole-body fluorescence quantification and 1-compartment PK modelling; format: in vivo, Danio rerio; conditions: for ke (total elimination rate constant): 1-compartment model fitted to all routes (immersion 10 µM, PC/IP 2 mg/kg, combination), 0-48 h; for Q (passive exchange with the medium) / t1/2 (elimination half-life, ln(2)/ke): 1-compartment model, zebrafish eleuthero-embryo; for Comparison of passive exchange with the medium (Q) among compounds: ranking in words
Description: We then quantified the relative amount of compound present in the zebrafish eleuthero-embryos by assessing the integrated fluorescence intensity of delineated whole-body contours present in the fluorescence images (Figs. 1, 2, 3, 4, 5, 6, 7).
The total measured fluorescence was proportional to total amount of compound present in the animal, as described by Eq. (1). RFUT denotes the sum of fluorescence intensity in the overall image, A denotes the amount of drug in the zebrafish, and FLUOR is a constant denoting the compound-specific fluorescence quantum yield.1 RFUT=FLUOR∗A
Simplifying by substitution of ke=Q+CL/V :3 dA/dt=-ke∗A+QM
Next, data fitting was performed with the following mathematical model:4 At=Dose∗e^-ket+MQ/ke(1-e^-ket) with Dose the injected dose (mg/kg), M the concentration in the medium (mg/L), Q the passive exchange with the medium (L/h) and ke the total elimination rate constant (h^−1). When administering the compound through immersion, the injected dose is 0 mg/kg. When injecting the compound, the concentration in medium is 0. This model was fitted to all available data using non-linear regression in R version 4.0.3.
Residual error plots were used to identify observations with poor fit.
The designed model was optimized by a non-linear least squares modelling, using Gauss–Newton algorithms under the method of iterative fashion, with R version 4.0.3, using stats::nls[50].

ke (total elimination rate constant) [3] [h⁻¹]	Q (passive exchange with the medium) [3] [L/h × 10^−9]	t1/2 (elimination half-life, ln(2)/ke) [3] [h]	Level and intra-body fluorescence distribution at 48 h, combination (immersion + PC) compared with PC microinjection ([1]; in vivo)	Additional effect of immersion route on intrabody exposure in combination treatment (RC3h) ([3]; 3 h exposure, immersion 10 µM + PC 2 mg/kg)	Comparison of passive exchange with the medium (Q) among compounds [3]	Intra-fish distribution after pericardial (PC) microinjection ([1]; in vivo)	Compound	Intra-fish distribution after pericardial (PC) microinjection ([1]; PC microinjection 2 mg/kg)	Level and intra-body fluorescence distribution at 48 h, combination (immersion + PC) compared with PC microinjection ([1]; immersion 10 µM + PC 2 mg/kg, 48 h)	Uptake after immersion (fluorescence imaging) ([1]; immersion 10 µM, 0-48 h from 3 dpf)	LogD [2]
0.049	8.37	13.92	altered	to a limited degree	taken up the fastest		C#CCNC(=O)CCCCCN1C(=CC=CC2=[N+](C)c3ccccc3C2(C)C)C(C)(C)c2ccccc21.[Cl-] [CY3A, Cyanine3 alkyne]				1.73
	1.71	57.41				rapidly distributed to the vasculature	C#CCNC(=O)c1ccc2c(c1)C(=O)OC21c2ccc(O)cc2Oc2cc(O)ccc21 [FAMA, FAM alkyne, 5-isomer]				
0.023	0.34	30.26			slowest one to be exchanged	rapidly distributed to the vasculature	C#CCNC(=O)CCCCCN1/C(=C/C=C/C=C/C2=[N+](C)c3ccc4c(S(=O)(=O)[O-])cc(S(=O)(=O)[O-])cc4c3C2(C)C)C(C)(C)c2c1ccc1c(S(=O)(=O)[O-])cc(S(=O)(=O)[O-])cc21.[K+].[K+].[K+] [S-CY5.5A, Sulfo-cyanine 5.5 alkyne]				
0.012	0.23	57.40				rapidly distributed to the vasculature	Sulfo-cyanine 3 alkyne [S-CY3A]				
0.014	1.61	50.41	altered			rapidly distributed to the vasculature	Sulfo-cyanine 5 alkyne [S-CY5A]				

Compound	ke (total elimination rate constant) [3] [h⁻¹]	Q (passive exchange with the medium) [3] [L/h × 10^−9]	t1/2 (elimination half-life, ln(2)/ke) [3] [h]	Level and intra-body fluorescence distribution at 48 h, combination (immersion + PC) compared with PC microinjection ([1]; in vivo)	Additional effect of immersion route on intrabody exposure in combination treatment (RC3h) ([3]; 3 h exposure, immersion 10 µM + PC 2 mg/kg)	Comparison of passive exchange with the medium (Q) among compounds [3]	Intra-fish distribution after pericardial (PC) microinjection ([1]; in vivo)	Intra-fish distribution after pericardial (PC) microinjection ([1]; PC microinjection 2 mg/kg)	Level and intra-body fluorescence distribution at 48 h, combination (immersion + PC) compared with PC microinjection ([1]; immersion 10 µM + PC 2 mg/kg, 48 h)	Uptake after immersion (fluorescence imaging) ([1]; immersion 10 µM, 0-48 h from 3 dpf)	LogD [2]
C#CCNC(=O)c1ccc(-c2c3ccc(=[N+](C)C)cc-3oc3cc(N(C)C)ccc23)c(C(=O)[O-])c1 (single isomer, unassigned) [TAMRA, Tamra alkyne 5-isomer]	0.052	1.45	13.35					rapidly distributed to the vasculature	altered	gradually taken up over time	0.46
